Results from paper PMC11477000, “Enantioselective Binding of Proton Pump Inhibitors to Alpha1-Acid Glycoprotein and Human Serum Albumin—A Chromatographic, Spectroscopic, and In Silico Study” (International Journal of Molecular Sciences, 2024).
“And” between values parts separate entries of the source, which are not always exact repeats. Identical values can stand only once. Like-named read-outs stand apart in the source and are kept apart here.

Assays:
HSA [1] = biological target: T1, HSA (Homo sapiens, UniProt P02768); details: ref [41]; cited from earlier work
T1 construct: purchased Sigma-Aldrich
T1 sequence (P02768 25-609): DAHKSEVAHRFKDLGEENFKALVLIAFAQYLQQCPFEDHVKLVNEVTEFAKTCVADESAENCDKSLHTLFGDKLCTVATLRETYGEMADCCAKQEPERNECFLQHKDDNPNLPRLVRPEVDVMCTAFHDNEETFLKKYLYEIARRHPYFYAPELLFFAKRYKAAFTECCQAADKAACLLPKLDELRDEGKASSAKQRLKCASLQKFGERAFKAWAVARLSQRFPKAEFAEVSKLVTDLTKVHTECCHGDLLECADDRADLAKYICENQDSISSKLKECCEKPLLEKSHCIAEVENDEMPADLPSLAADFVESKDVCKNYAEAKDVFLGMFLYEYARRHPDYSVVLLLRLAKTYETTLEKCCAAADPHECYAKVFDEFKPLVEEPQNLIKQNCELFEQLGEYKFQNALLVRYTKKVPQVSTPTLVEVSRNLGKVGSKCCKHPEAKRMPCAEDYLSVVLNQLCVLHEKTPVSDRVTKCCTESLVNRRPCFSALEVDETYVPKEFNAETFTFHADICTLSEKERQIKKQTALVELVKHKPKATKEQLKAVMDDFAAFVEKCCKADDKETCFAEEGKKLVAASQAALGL

HSA [2] = biological target: T1, HSA; details: ref [43]; cited from earlier work
AGP = test: UV titration (Benesi–Hildebrand) with AGP; type: binding, human; details: n = 3, 1 μM AGP, pH 7.4 phosphate buffer, 24 °C, 278 nm; for Kd: human, pH 7.4, UV titration, read-out: logKAGP ± Stdev (logarithm of stability constant) (converted)
Protocol: (§1) The UV-Vis absorption assay is a straightforward and relatively simple method to examine the interactions between small molecules and macromolecules. Changes in the structure of the protein caused by the interacting ligand can lead to alterations in the absorption spectrum. […] Fixed wavelength measurements were conducted at the absorption maxima of AGP and HSA. […] The change in the absorbance and wavelength maximum in the UV spectra during the titration refers to the complex formation between proteins and PPIs. The Benesi–Hildebrand method was used to determine the stability constants based on Equation (7).
(§2) The absorption spectra were recorded on a Jasco V-750 spectrophotometer (Jasco, Tokyo, Japan) at 24 °C using 1.0 cm path-length quartz cuvettes. Then, 1 μM HSA and AGP were dissolved in a sodium phosphate buffer solution (pH 7.4; 0.1 M) and their concentration was kept constant. The PPIs were dissolved in DMSO, and further diluted with the AGP or HSA solution. Next, 1000 μL of 1 μM HSA and AGP solutions was titrated with the PPI stock solution in 1 μL steps. The concentration of the PPIs was set to 4.00, 7.98, 11.96, 15.94, 19.90, 23.86, 27.81, and 31.75 μM. The binding constants were determined using the Benesi–Hildebrand equation:(7) A0/A−A0=εPPI/εAPPI−εPPI+εPPI/εAPPI−εPPI×1/K×[C] where A0 is the absorbance of the HSA or AGP at 278 nm, A is the absorbance of the formed complex also at 278 nm, εPPI is the extinction coefficient of the actual PPI, εAPPI is the extinction coefficient of the albumin or AGP and PPI complex, K is the binding coefficient, and [C] is the concentration of the investigated PPI. The plot of A0/A − A0 versus C^−1 has a slope of K^−1. All experiments were performed in triplicate.

[3] = biological target: human serum albumin (HSA) (Homo sapiens, UniProt P02768); test: Bound percentage by HPLC on HSA column, extrapolation to zero organic modifier; type: in vitro ADME; details: for Bound percentage (b%), average: average of IPA, EtOH, MeOH
Sequence of human serum albumin (HSA) (P02768 25-609): as above
Protocol: (§3) Chromatographic columns containing proteins can be used to determine the percentage of drug binding. A plot of the natural logarithm of the retention factors against the proportion of organic modifiers was created. […] The intercept of these linear equations can be used to calculate the bound percentage according to Equation (4) (see in Section 3.2).
(§4) Chromatographic measurements were carried out on two separate HPLC systems. The AGP binding study was performed on a Waters 2695e chromatographic system paired with a Waters 2996 PDA detector, controlled by Empower 3 FR5 (Waters Corp., Milford, MA, USA), while the HSA binding study was performed on an Agilent 1100 HPLC system, consisting of an inline degasser (G1322A), a quaternary pump (G1311A), an automatic injector (G1329A) paired with sample thermostat (G1330A), a column thermostat (G1316A), and a diode array detector (G1315A) with Agilent Chemstation B04.03-SP2 software (Agilent, Bronnwald, Germany). For the binding studies, two protein-based chiral stationary phases were utilized. The chromatographic binding study for AGP was conducted on a ChromTech Chiral-AGP column (150 mm × 4.0 mm; ChromTech Ltd., Congleton, UK), while the binding study for HSA was performed on a Daicel Chiralpak HSA column (50 mm × 4.0 mm; Daicel Corp., Osaka, Japan). The detection wavelength was 210 nm for all measurements. The stock solutions of PPIs were prepared at a concentration of 1 mg/mL in MeOH. Subsequent dilutions were prepared using water. The injected samples were mixed and diluted from the stock solutions. The final concentration for the eutomer was 0.2 mg/mL, and for the distomer, it was 0.1 mg/mL. A volume of 2 μL was injected. To mitigate the instability of PPIs in aqueous solutions, the samples were kept at a temperature of 4 °C. Cooling the samples to 4 °C prevented significant decomposition for a period of 24 h. After 24 h, new samples were prepared for injection. Chromatographic parameters were calculated based on the following equations. The retention factor (k) was calculated as:(1) k=(tr−t0)/t0 where tr is the retention time of the investigated analyte, and t0 is the dead time, determined as the first peak appearance in the chromatogram. Resolution was calculated based on the following equation:(2) Rs=2(t2−t1)/(w1+w2) where t2 and t1 are the retention times of the second and first eluted enantiomers, respectively, while w is the peak width. The separation factor (α) was calculated as follows:(3) α=k2/k1 where k1 and k2 are the retention factors of the first- and second-eluting enantiomers, respectively. The k values were also used to calculate the protein-bound percentage (b%) using Equation (4):(4) b%=k/1+k×100

HSA [4] = biological target: T1, HSA; test: UV titration (Benesi–Hildebrand) with HSA; type: binding; details: n = 3, 1 μM HSA, pH 7.4 phosphate buffer, 24 °C, 278 nm, read-out: logKHSA ± Stdev. (logarithm of stability constant) (converted)
Protocol: as §1, §2

BSA = details: racemic, ref [39]; cited from earlier work
[5] = tested on: α1-acid glycoprotein (AGP); test: Bound percentage by HPLC on AGP column, extrapolation to zero organic modifier; type: in vitro ADME, human; details: for Bound percentage (b%), average: average of IPA, EtOH, MeOH
Protocol: as §3
as §4, with “Cooling the samples to 4 °C prevented significant decomposition for a period of 24 h.” left out

[6] = extrapolation to zero percent EtOH
[7] = extrapolation to zero percent IPA
[8] = extrapolation to zero percent MeOH

Structure (SMILES)	logK (HSA [1])	logK (HSA [2])	Kd (AGP) [µM]	Bound percentage (b%), average [3]	Bound percentage (b%) [3, 6] [%]	Bound percentage (b%) [3, 7] [%]	Bound percentage (b%) [3, 8] [%]	Kd (HSA [4]) [µM]	logK (BSA)	Bound percentage (b%), average [5]	Bound percentage (b%) [5, 6] [%]	Bound percentage (b%) [5, 7] [%]	Bound percentage (b%) [5, 8] [%]	logKAGP ± Stdev (logarithm of stability constant) (AGP; UV titration)
COc1ccc2nc([S@@+]([O-])Cc3ncc(C)c(OC)c3C)[nH]c2c1 [S-omeprazole, esomeprazole]	4.70	3.73	33.9	91.76% and 91.76 ± 1.08%	92.97	91.15	91.03	95.5						
COc1ccc2[nH]c([S@+]([O-])Cc3ncc(C)c(OC)c3C)nc2c1 [R-omeprazole]		3.50	20.4	91.76% and 91.76 ± 1.08%	92.97	91.15	91.03	33.9						
COc1ccnc(C[S+]([O-])c2nc3cc(-n4cccc4)ccc3[nH]2)c1C (centres unmarked) [Ilaprazole]									5.63					
COCCCOc1ccnc(C[S@+]([O-])c2nc3ccccc3[nH]2)c1C [S-rabeprazole]			17.4	88.84% and 88.84 ± 0.59%	88.85	88.24	89.42	38		97.98% and 97.98 ± 1.51%	98.17	99.39	96.39	
COc1ccnc(C[S+]([O-])c2nc3ccc(OC(F)F)cc3[nH]2)c1OC (centres unmarked) [Pantoprazole]									5.04					
COCCCOc1ccnc(C[S@@+]([O-])c2nc3ccccc3[nH]2)c1C [R-rabeprazole, dexrabeprazole]			31.6	88.84% and 88.84 ± 0.59%	88.85	88.24	89.42	46.8		96.78% and 96.78 ± 1.77%	96.69	98.60	95.07	4.59 ± 0.03
